Results reported in article PMC6301270 (MedChemComm, 2018).

Tested on: T.b. brucei (strain 427) bloodstream form parasites
Test: T.b. brucei single concentration screen (10 μM)
Details: Trypanosoma brucei, read-out: T.b.brucei % viability (10 µM)

Compound	viability at 10 µM
CCOc1ccccc1C(=O)Nc1cccc(-c2nc3ncccn3c2C)c1 [MMV019790, CCOc1ccccc1C(=O)Nc2cccc(c2)c3nc4ncccn4c3C]	103%
Cc1ccc2cc(C3NC(=O)c4ccccc4N3)c(Cl)nc2c1 (stereo not shown) [MMV019807, Cc1ccc2cc(C3NC(=O)c4ccccc4N3)c(Cl)nc2c1]	113%
O=C(Nc1ccnc(-c2cccnc2)n1)c1cc(C(F)(F)F)cc(C(F)(F)F)c1 [MMV019838, FC(F)(F)c1cc(cc(c1)C(F)(F)F)C(=O)Nc2ccnc(n2)c3cccnc3]	106%
Cc1nn(C)cc1C(C)Nc1nncc(-c2ccc(C(F)(F)F)cc2)n1 (stereo not shown) [MMV019993, CC(Nc1nncc(n1)c2ccc(cc2)C(F)(F)F)c3cn(C)nc3C]	104%
COc1cccc(CC(=O)N2CCC(n3c(C)nc4ccc(F)cc43)CC2)c1 [MMV020081, COc1cccc(CC(=O)N2CCC(CC2)n3c(C)nc4ccc(F)cc34)c1]	99%
CC1CC1C(=O)NC1CCN(CC2(c3ccccc3)CCCCC2)CC1 (stereo not shown) [MMV020120, CC1CC1C(=O)NC2CCN(CC3(CCCCC3)c4ccccc4)CC2]	109%
CNC(=O)c1cc(S(=O)(=O)N2CCN(c3ccccn3)CC2)cs1 [MMV020136, CNC(=O)c1cc(cs1)S(=O)(=O)N2CCN(CC2)c3ccccn3]	97%
Cc1cc(C(=O)Nc2ccc(-c3ccccc3)cc2)no1 [MMV020152, Cc1onc(c1)C(=O)Nc2ccc(cc2)c3ccccc3]	85%
CC(C)NCC(=O)Nc1cccc(C(=O)Nc2cccc(C(F)(F)F)c2)c1 [MMV020165, CC(C)NCC(=O)Nc1cccc(c1)C(=O)Nc2cccc(c2)C(F)(F)F]	107%
Cc1ccc(NC(=O)c2cc(S(=O)(=O)NC(C)(C)C)ccc2C)nc1 [MMV020289, Cc1ccc(NC(=O)c2cc(ccc2C)S(=O)(=O)NC(C)(C)C)nc1]	93%
CC(C(=O)N1CCCC1)N1CCN(S(=O)(=O)c2ccc(C(C)(C)C)cc2)CC1 (stereo not shown) [MMV020291, CC(N1CCN(CC1)S(=O)(=O)c2ccc(cc2)C(C)(C)C)C(=O)N3CCCC3]	95%
Cc1nnc(NC(=O)c2cn(-c3ccccc3)nc2-c2ccccc2C)o1 [MMV020320, Cc1oc(NC(=O)c2cn(nc2c3ccccc3C)c4ccccc4)nn1]	46%
COc1ccccc1C(C)NCC(=O)Nc1cc(C(F)(F)F)ccc1Cl (stereo not shown) [MMV020321, COc1ccccc1C(C)NCC(=O)Nc2cc(ccc2Cl)C(F)(F)F]	106%
CC1CCCN(C(=O)C(C)Nc2cc(Cl)ccc2N2CCOCC2)C1 (stereo not shown) [MMV020388, CC(Nc1cc(Cl)ccc1N2CCOCC2)C(=O)N3CCCC(C)C3]	95%
Cc1ccc(Oc2ccc(NC(=O)CNc3ccccc3N3CCCC3=O)cc2)cc1 [MMV020512, Cc1ccc(Oc2ccc(NC(=O)CNc3ccccc3N4CCCC4=O)cc2)cc1]	95%
COc1ccccc1CNC(=O)c1cc(C2CC2)nc2c1cnn2C(C)C [MMV020517, COc1ccccc1CNC(=O)c2cc(nc3c2cnn3C(C)C)C4CC4]	93%
Cc1cc2ccccc2n1CC(=O)N1CC(C(=O)N2CCCCC2)Oc2ccccc21 (stereo not shown) [MMV020520, Cc1cc2ccccc2n1CC(=O)N3CC(Oc4ccccc34)C(=O)N5CCCCC5]	69%
O=C(NC1CC1)c1ccc(N2CCOc3ccc(Cl)cc32)s1 [MMV020537, Clc1ccc2OCCN(c3ccc(s3)C(=O)NC4CC4)c2c1]	97%
CC(C)C(NC(=O)Cc1cccc2ccccc12)C(=O)Nc1cccc(C#N)c1 (stereo not shown) [MMV020591, CC(C)C(NC(=O)Cc1cccc2ccccc12)C(=O)Nc3cccc(c3)C#N]	93%
Cc1noc(C)c1C(=O)N1CCCC(c2[nH]c3c(C)cccc3c2-c2ccncc2)C1 (stereo not shown) [MMV020623, Cc1onc(C)c1C(=O)N2CCCC(C2)c3[nH]c4c(C)cccc4c3c5ccncc5]	78%
COc1ccc(-c2cncc3ccc(C(=O)NCCCn4ccnc4)nc23)cc1 [MMV020670, COc1ccc(cc1)c2cncc3ccc(nc23)C(=O)NCCCn4ccnc4]	51%
COc1ccc(Cl)cc1NC(=O)CN(C)C(=O)c1cnn(-c2ccccc2)n1 [MMV020710, COc1ccc(Cl)cc1NC(=O)CN(C)C(=O)c2cnn(n2)c3ccccc3]	103%
